Laboratory results published in patent US20080207498A1, “Methods for Treating Alzheimer's Disease” (priority 2005, published 2008).

Columns and labels:
FcγIII = experiment: Inhibition of FcR binding, reverse ELISA with PAP immune complexes; details: PAP pre-incubated with peptide one hour, one hour on FcγR coated plates; lower OD = more inhibition; positive control 1.588
Excerpt: (§1) For this reason, a “reverse ELISA” technique was used to assess binding of the Fc region to ligands that bind to immune complexed IgG Fc. In a reverse ELISA, the enzyme (e.g., HRP) is not covalently conjugated to the Fc portion of the secondary antibody. Rather, a preformed immune complex of peroxidase-rabbit (or mouse) anti-peroxidase IgG (“PAP” complex) is used. […] In these experiments, an Fc CH2-CH3 cleft binding ligand (e.g., purified human C1q) was bound to microwell plates. In the absence of competitor, PAP complexes bound to the immobilized ligand and the reaction between HRP and its substrate produced a signal. This signal was reduced by polypeptides and compounds provided herein that inhibited PAP binding to the immobilized ligand.
(§2) Once the reverse ELISA protocol was established using the C1q assay, the assay was redesigned using […], FcγIIb, and FcγIII in place of C1q. Highly purified FcγIIa, FcγIIb and FcγIII were immunoadsorbed onto plastic microwells. After optimizing the FcγR reverse ELISA system, simple competitive inhibition experiments using polypeptides provided herein were conducted to investigate their ability to inhibit binding of immune complexes to purified FcγR.
(§3) Falcon microtiter plates were coated with 1:10 dilutions of highly purified FcγIIa, FcγIIb and FcγIII and incubated for 24 hours. The plates were washed and then blocked with 5×BSA blocking solution (Alpha Diagnostic International, San Antonio, Tex.) for 24 hours. PAP immune complexes were formed as described above. PAP (100 μl) were pre-incubated with 100 μl of peptide for one hour. PAP/peptide mixtures were added to the FcγR coated plates and incubated for one hour. After washing, plates were incubated with ABTS substrate for 15 minutes and read at 405 nm.

FcγIIb = experiment: as above; details: PAP pre-incubated with peptide one hour, one hour on FcγR coated plates; lower OD = more inhibition; positive control 1.394
Excerpt: as §1, §2, §3

purified human C1q = experiment: Inhibition of C1q binding, reverse ELISA with PAP immune complexes; details: for inhibition of C1q binding, ranking in words: comment on Table 1
Excerpt: as §1
PAP complexes were formed mixing 2 μl of rabbit anti-peroxidase (Sigma Chemicals, St. Louis, Mo.) with 50 μl of peroxidase (Sigma-Aldrich, St. Louis, Mo.) in 1 ml distilled water. PAP (100 μl) were pre-incubated with 100 μl of peptide for one hour, 100 μl were pre-incubated with 100 μl of peptide or human C1q (Quidel Corp., San Diego, Calif.) for one hour. The C1q/PAP and peptide/PAP mixtures (100 μl) were incubated with C1q coated plates for 30 minutes. After washing, plates were incubated with ATBS (Quidel Corp.) for 15 minutes and read at 405 nm.

IgG Fc = experiment: Binding of SEQ ID NO:16 to IgG Fc, alanine substitution; details: alanine substitution of SEQ ID NO:16 Val-13 or Trp-14
FcR = experiment: Inhibition of FcR binding to PAP; details: comment on Table 2
Description: as §2, §3

[1] = test system: human wt tau protein (441 residues); experiment: Inhibition of immune complexed IgG binding to wt tau, reverse ELISA; details: for Wt tau protein (read at 405 nm): PAP pre-incubated with peptide one hour, 60 minutes on tau coated plates (16.7 μg/ml), positive control 0.695, substrate only 0.060
Excerpt: as §1
PAP complexes were formed by mixing 2 μl of rabbit anti-peroxidase with 50 μl of peroxidase in 1 ml distilled water. PAP (100 μl) were pre-incubated with 100 μl of peptide for one hour. Control PAP (200 μl) also was incubated for one hour. 100 μl of either PAP or PAP/peptide was added to Falcon microtiter plates that had been coated for 24 hours with 16.7 μg/ml human wt tau protein (441 residues; Sigma-Aldrich). The PAP or peptide/PAP mixtures (100 μl) were added after one hour to tau coated plates and incubated for 60 minutes. After washing, plates were incubated with ATBS for 15 minutes, and read at 405 nm.

[2] = test system: human wt β amyloid peptide 1-40; experiment: Inhibition of immune complexed IgG binding to wt β-amyloid peptide, reverse ELISA; details: for Wt 1-40 β-amyloid peptide (read at 405 nm): PAP pre-incubated with peptide one hour, 60 minutes on β-amyloid coated plates (33 μg/ml), positive control 3.278, substrate only 0.061
Excerpt: as §1
Different fragments of the Aβ peptide contribute to the amyloid plaques pathognomic for AD, and these Aβ fragments appear to stimulate microglial activation and subsequent AD neuropathology. Thus, experiments were conducted to test Aβ 1-40 for binding to immune complexes, and to determine whether the inhibitors described herein can inhibit binding of PAP immune complexes to Aβ peptide. PAP complexes were prepared by mixing 2 μl of rabbit anti-peroxidase with 50 μl of peroxidase in 1 ml distilled water. PAP (100 μl) were pre-incubated with 100 μl of peptide for one hour. Control PAP (200 μl) also were incubated for one hour, and 100 μl of either PAP or PAP/peptide was added to Falcon microtiter plates that had been coated for 24 hours with 33 μg/ml human wt β amyloid peptide 1-40 (amyloid precursor protein (APP) fragment 1-40; Sigma-Aldrich) having the sequence […]Ans-Lys-Gly-Ale-[…](SEQ ID NO:39). The PAP or peptide/PAP mixtures were incubated on the β-amyloid peptide coated plates for 60 minutes. After washing, plates were incubated with ATBS for 15 minutes and read at 405 nm.

FcγIIa = experiment: Inhibition of FcR binding, reverse ELISA with PAP immune complexes; details: PAP pre-incubated with peptide one hour, one hour on FcγR coated plates; lower OD = more inhibition; positive control 1.599
Excerpt: as §1, §2, §3

Sequence	FcγIII (read at 405 nm) (FcγIII)	FcγIIb (read at 405 nm) (FcγIIb)	inhibition of C1q binding, ranking in words (purified human C1q)	Wt tau protein (read at 405 nm) [1]	Wt 1-40 β-amyloid peptide (read at 405 nm) [2]	other results
APPCAFHLGELVWCT	0.880	0.380	–	–	–	–
APPCARHLGELVWCT	–	–	next best result	–	–	–
APPCAWHLGELVWCT	0.530	–	–	–	–	–
APPDCAWHLGELVWCT	0.670	–	greatest inhibition of C1q binding, almost equaling C1q itself	0.059	0.885	ΔΔG, disruption of binding (IgG Fc): ≥ 2.0 kcal/mol; inhibition of FcR binding to PAP, ranking in words (FcR): greatest inhibition; inhibition of human wt tau protein binding to PAP, ranking in words ([1]; comment on Table 3): greatest inhibition
DCAFHLGELVWCT	0.810	0.510	–	–	–	FcγIIa (read at 405 nm) (FcγIIa): 0.660
DCAWHLGELVWCT	–	–	–	0.322	0.151	OD 405 nm (purified human C1q; PAP pre-incubated with peptide or C1q for one hour, 30 minutes on C1q coated plates, lower OD = more inhibition, positive control 2.355): 1.100; inhibition of human wt β amyloid peptide binding to PAP, ranking in words ([2]; comment on Table 4): greatest inhibition
